The text below walks through data of patent US9493480B2, “Monomeric trioxane amide sulfur compounds” (THE JOHNS HOPKINS UNIVERSITY, priority 2011, dated 2016).

Entries after “also recorded” stand apart in the source; their conditions may differ.

The subject of one data set is P388 leukemia. As to conditions: NCI Report on NSC 369397, tested on 25 Oct. 1983; cited from earlier work.
Data set [1] concerns P. falciparum (NF54) Parasites. The data set is described as follows: In vitro antimalarial potencies of trioxanes against P. falciparum (NF54) parasites. The format is cell-based. As to conditions: Plasmodium falciparum, M ± SD of at least four determinations. How it is done:
Biology: In Vitro Potencies. Prompted by the unexpected in vivo efficacy of 3-arteSanilide 12d, the in vitro the intrinsic antimalarial activity, free of host-mediated factors, was assayed of compounds that differ in the oxidative state of the sulfur atom (Table 2).

Data set [2] deals with Plasmodium berghei, ANKA malaria strain. The data set is described as follows: In vivo antimalarial efficacy, single oral dose of trioxane combined with mefloquine hydrochloride in P. berghei infected mice. How it is done:
[…] Rosenthal, A. S., et al., Malaria-infected Mice are Cured by a Single Oral Dose of New Dimeric Trioxane Sulfones Which are Also Selectively and Powerfully Cytotoxic to Cancer Cells. J. Med. Chem. 2009, 52, 1198-1203. Each of four mice in a group was treated orally 24 hours post infection with a single dose of 0.20 mL [(0.20 mL/1.07 mL)×0.64 mg=0.12 mg] of diluted trioxane solution, […] Alternatively, a single dose of 7.5 mg/kg of trioxane plus 15.0 mg/kg of mefloquine hydrochloride was used. The malariometrics used involved determining blood parasitemia levels, as well as monitoring the duration of animal survival compared to survival time of infected animals receiving no drug.
The average survival time of the malaria-infected animals receiving no drug was 6.8 days post infection. All of the infected mice in this study receiving the trioxane drug artemether (2b) plus mefloquine died on the average on day 18.8 post infection (Table 1, controls). Additionally, a single oral dose of artemether (6 mg/kg) plus lumefantrine (18 mg/kg) was not curative (see Table 1), with the mice dying an average of 12.5 days after infection. […]
(§1) A widely accepted indication of complete cure (i.e., 100% efficacy) is survival of animals to day 30 post infection with no detectable malaria parasites in the animals' blood at that time. It is important to note that the combination of the standard trioxane drug artemether (2b), with either mefloquine hydrochloride or lumefantrine, was not curative (Table 1, controls). […] While 3-fluoroanilide 12b was not curative, administration of 3-methylthioether 3-arteSanilide 12d at a dose of 7.5 mg/kg plus 15 mg/kg mefloquine hydrochloride achieved mouse survival through day 30 after infection; however, all four of the surviving mice appeared sick and had considerable parasitemia levels (25-50%). […] In addition, 3-arteSanilide 12d is more efficacious than 4-arteSanilide 12c. […] Replacing the sulfur atom in 12d with an oxygen atom afforded methyl ether 12p, which prolonged survival time to only 21.8 days after infection. This observation indicates the critical nature of the sulfur atom. In addition, the lipophilicity of 3-arteSanilide 12d was increased by lengthening the alkyl sulfide chain from methyl to n-propyl. 3-n-Propyl sulfide 12l, however, is much less efficacious than the curative methyl sulfide 3-arteSanilide 12d.

The nature of data set [3]: Overt toxicity, behavior and weight gain of treated malaria-infected mice. Type of data set: in vivo. The protocol:
as §1

Data set [4] in a line: Stability of the neat compound at 60° C. As to conditions: absence of solvent. Type of data set: physicochemical. From the text: Hydroboration-oxidation followed by oxidation of the resulting primary alcohol produced C-10 carboxylic acid 11. Posner, G. H., et al., Orally Active, Antimalarial, Anticancer, Artemisinin-derived Trioxane Dimers with High Stability and Efficacy. J. Med. Chem. 2003, 46, 1060-1065. Condensation of carboxylic acid 11 with various anilines yielded a library of C-10 monomeric trioxane anilides 12b-h, 12l, 12o-q (FIG. 2). Scale up synthesis is expected to be straightforward. Without wishing to be bound to any one particular theory, because these anilides 12b-q are C-10 non-acetal derivatives, they are more hydrolytic ally stable than the C-10 acetal first generation artemisinin derivatives, such as artemether (2b) or artesunate (2c). In the absence of solvent, neat 3-arteSanilide 12d, for example, is stable for at least 7 days at 60° C.

Setting [5] is: single oral dose 100 mg/kg, no mefloquine.

Usually EC50 stands for the concentration needed to bring the measured effect to its halfway point. Read a high EC50 as a need for much substance.

For the compound `C[C@@H]1CC[C@H]2[C@@H](C)C(=O)O[C@@H]3O[C@@]4(C)CC[C@@H]1[C@]32OO4` [Artemisinin (1), artemisinin, reference compound], in the data set with P388 leukemia, the “activity against P388 leukemia” value was “inactive”. For the same compound, the concentration giving a half-maximal response (EC50) in data set [1] worked out at 10 ± 1.1 nM.
For the compound `CSc1cccc(NC(=O)CC[C@H]2O[C@@H]3O[C@@]4(C)CC[C@H]5[C@H](C)CC[C@@H]([C@H]2C)[C@@]35OO4)c1` [12d, 3-arteSanilide], the inhibition in vivo at 100 mg/kg in data set [2] (Plasmodium berghei, 72 h, single oral dose: trioxane 100 mg/kg, no mefloquine, read-out: % suppression of parasitemia (on day 3 after infection)) was determined as 97.2%. Moreover, in data set [2] (donors: 6 mg/kg trioxane + 18 mg/kg mefloquine, read after 30 days), the “parasitemia in uninfected mice inoculated with blood from the cured mice” value is listed as “no parasitemia was detected”. Further, the “mouse survival in words” value in data set [2] (setting [5]) was “prolonged mouse survival”. The “average survival (days) after infection” value in data set [2] (single oral dose 24 h post infection: trioxane 6 mg/kg + mefloquine hydrochloride 18 mg/kg, C57BL/6J male mice, 4 per group) amounted to 30 days; in data set [2] (single oral dose: trioxane 7.5 mg/kg + mefloquine hydrochloride 15 mg/kg, mice, 4 per group), 30 days; in data set [2] (single oral dose: trioxane 100 mg/kg, no mefloquine), 15.0 days. Moreover, the “cure outcome (survival to day 30 with no detectable parasites = complete cure)” value in data set [2] (single oral dose of trioxane (6 mg/kg) combined with mefloquine hydrochloride (18 mg/kg)) is listed as “complete cure; also recorded: cures malaria-infected mice”. The “% suppression of parasitemia (on day 3 after infection)” value in data set [2] (single oral dose: trioxane 6 mg/kg + mefloquine hydrochloride 18 mg/kg) and in data set [2] (single oral dose: trioxane 7.5 mg/kg + mefloquine hydrochloride 15 mg/kg) was over 99.9% each time. In addition, the “parasitemia on day 30 after infection in surviving mice” value in data set [2] (single oral dose: trioxane 6 mg/kg + mefloquine hydrochloride 18 mg/kg, value of one mouse where so stated) is reported as “^bNo parasitemia detected on day 30 after infection”. Besides, the “weight gain by day 30 after infection” value in data set [3] (6 mg/kg trioxane + 18 mg/kg mefloquine, compared with uninfected control mice) is “gained as much weight by day 30 after infection (data not shown) as the uninfected control mice; also recorded: gain as much weight as the control mice”. Besides, the “overt toxicity or behavioral change attributable to trioxane administration” value in data set [3] (malaria-infected mice cured by trioxane combined with mefloquine hydrochloride) is reported as “neither overt toxicity nor behavioral change”. The “toxicity of single oral dose” value in data set [3] (setting [5]) is on record as “nontoxic”. The “time stable, neat” value in data set [4] is listed as “at least 7 days”. Besides, a half-maximal response in data set [1] (EC50) required 9.1 ± 0.57 nM.
